Data reported in patent publication US9944602B2, “Piperidinone herbicides” (E. I. DU PONT DE NEMOURS AND COMPANY, priority 2014, dated 2018).

How the values were obtained:
Format in all cases: in vivo
[1] = system: foxtail, giant (giant foxtail, Setaria faberii); assay: Test A preemergence foxtail, giant; details: 0 to 100 scale, 0 no effect, 100 complete control
In short: (§1)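 Injury was scored by eye on a 0 to 100 scale after about 10 days in the greenhouse, with 100 meaning complete control. Preemergence treatment was a directed spray onto soil over seeds; postemergence treatment went onto one- to two-leaf plants 2–10 cm tall.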

kochia (Kochia scoparia) [2] = assay: Test A postemergence kochia; details: 0 to 100 scale, 0 is no effect, 100 is complete control
In short: as §1

rice (Oryza sativa) = assay: Test B flooded paddy test rice; details: Table B, Flood
In short: (§2)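 Visual injury relative to controls was scored after 13 to 15 d in the greenhouse. Treatment was by adding compound straight to flood water 3 cm deep, maintained for the whole test, on plants at the 2-leaf stage.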

[3] = system: barnyardgrass (Echinochloa crus-galli); assay: Test A postemergence barnyardgrass; details: 0 to 100 scale, 0 is no effect, 100 is complete control
In short: as §1

[4] = system: blackgrass (Alopecurus myosuroides); assay: Test A postemergence blackgrass; details: 0 to 100 scale, 0 is no effect, 100 is complete control
In short: as §1

[5] = system: sedge, umbrella (small-flower umbrella sedge, Cyperus difformis); assay: Test B flooded paddy test sedge, umbrella; details: Table B, Flood
In short: as §2

[6] = system: ducksalad (Heteranthera limosa); assay: Test B flooded paddy test ducksalad; details: Table B, Flood
In short: as §2

corn (Zea mays) = assay: Test A postemergence corn; details: 0 to 100 scale, 0 is no effect, 100 is complete control
In short: as §1

[7] = system: barnyardgrass (Echinochloa crus-galli); assay: Test A preemergence barnyardgrass; details: 0 to 100 scale, 0 no effect, 100 complete control
In short: as §1

[8] = system: ragweed (common ragweed, Ambrosia elatior); assay: Test A preemergence ragweed; details: 0 to 100 scale, 0 no effect, 100 complete control
In short: as §1

[9] = system: ragweed (common ragweed, Ambrosia elatior); assay: Test A postemergence ragweed; details: 0 to 100 scale, 0 is no effect, 100 is complete control
In short: as §1

[10] = system: pigweed (Amaranthus retroflexus); assay: Test A preemergence pigweed; details: 0 to 100 scale, 0 no effect, 100 complete control
In short: as §1

[11] = system: foxtail, giant (giant foxtail, Setaria faberii); assay: Test A postemergence foxtail, giant; details: 0 to 100 scale, 0 is no effect, 100 is complete control
In short: as §1

[12] = system: ryegrass, Italian (Italian ryegrass, Lolium multiflorum); assay: Test A postemergence ryegrass, Italian; details: 0 to 100 scale, 0 is no effect, 100 is complete control
In short: as §1

[13] = system: wheat (Triticum aestivum); assay: Test A postemergence wheat; details: 0 to 100 scale, 0 is no effect, 100 is complete control
In short: as §1

[14] = system: barnyardgrass (Echinochloa crus-galli); assay: Test B flooded paddy test barnyardgrass; details: Table B, Flood
In short: as §2

[15] = system: galium (catchweed bedstraw, Galium aparine); assay: Test A postemergence galium; details: 0 to 100 scale, 0 is no effect, 100 is complete control
In short: as §1

kochia (Kochia scoparia) [16] = assay: Test A preemergence kochia; details: 0 to 100 scale, 0 no effect, 100 complete control
In short: as §1

[17] = system: pigweed (Amaranthus retroflexus); assay: Test A postemergence pigweed; details: 0 to 100 scale, 0 is no effect, 100 is complete control
In short: as §1

[18] = system: ryegrass, Italian (Italian ryegrass, Lolium multiflorum); assay: Test A preemergence ryegrass, Italian; details: 0 to 100 scale, 0 no effect, 100 complete control
In short: as §1

SMILES: O=C1NCC[C@H](c2ccc(C(F)(F)F)cc2)[C@H]1C(=O)Nc1cccc(F)c1F [Compound 22, (3R,4S)—N-(2,3-difluorophenyl)-2-oxo-4-[4-(trifluoromethyl)phenyl]-3-piperidinecarboxamide]
- pest or weed control at 125 g/ha ([1]; Setaria faberi, pre-emergence, 240 h, 125 g ai/ha, read-out: Foxtail, Giant plant response rating): 90%
- pest or weed control at 500 g/ha ([1]; Setaria faberi, pre-emergence, 240 h, 500 g ai/ha, read-out: Foxtail, Giant plant response rating): 90%
- pest or weed control at 125 g/ha (kochia (Kochia scoparia) [2]; Bassia scoparia, post-emergence, 240 h, 125 g ai/ha, read-out: Plant response rating, Kochia): 40%
- pest or weed control at 500 g/ha (kochia (Kochia scoparia) [2]; Bassia scoparia, post-emergence, 240 h, 500 g ai/ha, read-out: Plant response rating, Kochia): 60%
- plant injury at 250 g/ha (rice (Oryza sativa); Oryza sativa, 250 g ai/ha, scale 0 to 100, read-out: Plant response rating): 0%
- pest or weed control at 125 g/ha ([3]; Echinochloa crus-galli, post-emergence, 240 h, 125 g ai/ha, read-out: Plant response rating, Barnyardgrass): 80%
- pest or weed control at 500 g/ha ([3]; Echinochloa crus-galli, post-emergence, 240 h, 500 g ai/ha, read-out: Plant response rating, Barnyardgrass): 90%
- pest or weed control at 125 g/ha ([4]; Alopecurus myosuroides, post-emergence, 240 h, 125 g ai/ha, read-out: Plant response rating, Blackgrass): 50%
- pest or weed control at 500 g/ha ([4]; Alopecurus myosuroides, post-emergence, 240 h, 500 g ai/ha, read-out: Plant response rating, Blackgrass): 60%
- pest or weed control at 250 g/ha ([5]; Cyperus difformis, 250 g ai/ha, scale 0 to 100, read-out: Plant response rating): 0%
- pest or weed control at 250 g/ha ([6]; Heteranthera limosa, 250 g ai/ha, scale 0 to 100, read-out: Plant response rating): 100%
- Corn plant response rating (crop injury, 0 = no effect, 100 = complete kill) at 125 g/ha (corn (Zea mays); Zea mays, post-emergence, 240 h, 125 g ai/ha): 0%
- Corn plant response rating (crop injury, 0 = no effect, 100 = complete kill) at 500 g/ha (corn (Zea mays); Zea mays, post-emergence, 240 h, 500 g ai/ha): 60%
- pest or weed control at 125 g/ha ([7]; Echinochloa crus-galli, pre-emergence, 240 h, 125 g ai/ha, read-out: Barnyardgrass plant response rating): 90%
- pest or weed control at 500 g/ha ([7]; Echinochloa crus-galli, pre-emergence, 240 h, 500 g ai/ha, read-out: Barnyardgrass plant response rating): 90%
- pest or weed control at 125 g/ha ([8]; Ambrosia artemisiifolia, pre-emergence, 240 h, 125 g ai/ha, read-out: Ragweed plant response rating): 60%
- pest or weed control at 500 g/ha ([8]; Ambrosia artemisiifolia, pre-emergence, 240 h, 500 g ai/ha, read-out: Ragweed plant response rating): 80%
- pest or weed control at 125 g/ha ([9]; Ambrosia artemisiifolia, post-emergence, 240 h, 125 g ai/ha, read-out: Plant response rating, Ragweed): 50%
- pest or weed control at 500 g/ha ([9]; Ambrosia artemisiifolia, post-emergence, 240 h, 500 g ai/ha, read-out: Plant response rating, Ragweed): 50%
- pest or weed control at 125 g/ha ([10]; Amaranthus retroflexus, pre-emergence, 240 h, 125 g ai/ha, read-out: Pigweed plant response rating): 20%
- pest or weed control at 500 g/ha ([10]; Amaranthus retroflexus, pre-emergence, 240 h, 500 g ai/ha, read-out: Pigweed plant response rating): 50%
- pest or weed control at 125 g/ha ([11]; Setaria faberi, post-emergence, 240 h, 125 g ai/ha, read-out: Plant response rating, Foxtail, Giant): 90%
- pest or weed control at 500 g/ha ([11]; Setaria faberi, post-emergence, 240 h, 500 g ai/ha, read-out: Plant response rating, Foxtail, Giant): 90%
- pest or weed control at 125 g/ha ([12]; Lolium multiflorum, post-emergence, 240 h, 125 g ai/ha, read-out: Plant response rating, Ryegrass, Italian): 40%
- pest or weed control at 500 g/ha ([12]; Lolium multiflorum, post-emergence, 240 h, 500 g ai/ha, read-out: Plant response rating, Ryegrass, Italian): 70%
- plant injury at 125 g/ha ([13]; Triticum aestivum, post-emergence, 240 h, 125 g ai/ha, read-out: Plant response rating, Wheat): 0%
- plant injury at 500 g/ha ([13]; Triticum aestivum, post-emergence, 240 h, 500 g ai/ha, read-out: Plant response rating, Wheat): 60%
- pest or weed control at 250 g/ha ([14]; Echinochloa crus-galli, 250 g ai/ha, scale 0 to 100, read-out: Plant response rating): 65%
- pest or weed control at 125 g/ha ([15]; Galium, post-emergence, 240 h, 125 g ai/ha, read-out: Plant response rating, Galium): 50%
- pest or weed control at 500 g/ha ([15]; Galium, post-emergence, 240 h, 500 g ai/ha, read-out: Plant response rating, Galium): 70%
- pest or weed control at 125 g/ha (kochia (Kochia scoparia) [16]; Bassia scoparia, pre-emergence, 240 h, 125 g ai/ha, read-out: Kochia plant response rating): 70%
- pest or weed control at 500 g/ha (kochia (Kochia scoparia) [16]; Bassia scoparia, pre-emergence, 240 h, 500 g ai/ha, read-out: Kochia plant response rating): 80%
- pest or weed control at 125 g/ha ([17]; Amaranthus retroflexus, post-emergence, 240 h, 125 g ai/ha, read-out: Plant response rating, Pigweed): 40%
- pest or weed control at 500 g/ha ([17]; Amaranthus retroflexus, post-emergence, 240 h, 500 g ai/ha, read-out: Plant response rating, Pigweed): 50%
- pest or weed control at 125 g/ha ([18]; Lolium multiflorum, pre-emergence, 240 h, 125 g ai/ha, read-out: Ryegrass, Italian plant response rating): 20%
- pest or weed control at 500 g/ha ([18]; Lolium multiflorum, pre-emergence, 240 h, 500 g ai/ha, read-out: Ryegrass, Italian plant response rating): 60%

SMILES: O=C1NCCC(c2cccc(C(F)(F)F)c2)C1C(=O)Nc1ccccc1Cl (racemic) [Compound 17]
- Foxtail, Giant plant response rating ([1]; 125 g ai/ha): 80
- Foxtail, Giant plant response rating ([1]; 500 g ai/ha): 90
- Plant response rating, Kochia (kochia (Kochia scoparia) [2]; 125 g ai/ha): 0
- Plant response rating, Kochia (kochia (Kochia scoparia) [2]; 500 g ai/ha): 20
- Plant response rating (rice (Oryza sativa); 500 g ai/ha, scale 0 to 100): 0
- Plant response rating, Barnyardgrass ([3]; 125 g ai/ha): 80
- Plant response rating, Barnyardgrass ([3]; 500 g ai/ha): 80
- Plant response rating, Blackgrass ([4]; 125 g ai/ha): 30
- Plant response rating, Blackgrass ([4]; 500 g ai/ha): 30
- Plant response rating ([5]; 500 g ai/ha, scale 0 to 100): 0
- Plant response rating ([6]; 500 g ai/ha, scale 0 to 100): 40
- Plant response rating, Corn (corn (Zea mays); 125 g ai/ha): 0
- Plant response rating, Corn (corn (Zea mays); 500 g ai/ha): 0
- Barnyardgrass plant response rating ([7]; 125 g ai/ha): 50
- Barnyardgrass plant response rating ([7]; 500 g ai/ha): 80
- Ragweed plant response rating ([8]; 125 g ai/ha): 0
- Ragweed plant response rating ([8]; 500 g ai/ha): 0
- Plant response rating, Ragweed ([9]; 125 g ai/ha): 0
- Plant response rating, Ragweed ([9]; 500 g ai/ha): 0
- Pigweed plant response rating ([10]; 125 g ai/ha): 0
- Pigweed plant response rating ([10]; 500 g ai/ha): 0
- Plant response rating, Foxtail, Giant ([11]; 125 g ai/ha): 80
- Plant response rating, Foxtail, Giant ([11]; 500 g ai/ha): 80
- Plant response rating, Ryegrass, Italian ([12]; 125 g ai/ha): 0
- Plant response rating, Ryegrass, Italian ([12]; 500 g ai/ha): 20
- Plant response rating, Wheat ([13]; 125 g ai/ha): 20
- Plant response rating, Wheat ([13]; 500 g ai/ha): 20
- Plant response rating ([14]; 500 g ai/ha, scale 0 to 100): 35
- Plant response rating, Galium ([15]; 125 g ai/ha): 20
- Plant response rating, Galium ([15]; 500 g ai/ha): 20
- Kochia plant response rating (kochia (Kochia scoparia) [16]; 125 g ai/ha): 30
- Kochia plant response rating (kochia (Kochia scoparia) [16]; 500 g ai/ha): 30
- Plant response rating, Pigweed ([17]; 125 g ai/ha): 0
- Plant response rating, Pigweed ([17]; 500 g ai/ha): 0
- Ryegrass, Italian plant response rating ([18]; 125 g ai/ha): 20
- Ryegrass, Italian plant response rating ([18]; 500 g ai/ha): 40
